Data set [1] deals with Plasmodium berghei. The data set can be described thus: Antimalarial activity against Plasmodium berghei infected in mouse assessed as parasitemia cure at 11.1 mg/kg, ip dosed once daily on days 0, 1, and 2 days post infection measured on day 28 post infection. The data set is classed as functional, organism-based.
Data set [2] deals with Plasmodium berghei. The experiment in a line: Antimalarial activity against Plasmodium berghei infected in mouse assessed as mean survival time at 11.1 mg/kg, ip dosed once daily on days 0, 1, and 2 days post infection measured on day 28 post infection (reference value: 13.2 days). Format: functional.
Data set [3] has as its system Plasmodium berghei. The experiment in a line: Antimalarial activity against Plasmodium berghei infected in mouse assessed as suppression in parasitemia at 11.1 mg/kg, ip dosed once daily on days 0, 1, and 2 days post infection measured on day 5 post infection relative to untreated control. Format: functional.
Data set [4] deals with Plasmodium berghei. The data set can be described thus: Antimalarial activity against Plasmodium berghei infected in mouse assessed as parasitemia cure at 33.3 mg/kg, ip dosed once daily on days 0, 1, and 2 days post infection measured on day 28 post infection. The data set is classed as functional, organism-based.
Data set [5] deals with Plasmodium berghei. The experiment in a line: Antimalarial activity against Plasmodium berghei infected in mouse assessed as mean survival time at 33.3 mg/kg, ip dosed once daily on days 0, 1, and 2 days post infection measured on day 28 post infection (reference value: 13.2 days). The data set is classed as functional.
Data set [6] in a line: in vitro. The note with it: hamster, CHO cells versus Plasmodium falciparum NF54.
Description: Selectivity index, ratio of IC50 for CHO cells to IC50 for antiplasmodial activity against chloroquine-sensitive Plasmodium falciparum NF54
In data set [7] the test system is Plasmodium falciparum. The experiment in a line: Potency index, ratio of IC50 for artemisinin to IC50 for test compound for antiplasmodial activity against chloroquine-resistant Plasmodium falciparum Dd2 incubated for 48 hrs by parasite lactate dehydrogenase assay. Format: functional.
The subject of data set [8] is Plasmodium berghei. The data set can be described thus: Antimalarial activity against Plasmodium berghei infected in mouse assessed as host survival at 11.1 mg/kg, ip dosed once daily on days 0, 1, and 2 days post infection measured on day 28 post infection relative to untreated control. The data set is classed as functional, organism-based.
Data set [9] deals with Plasmodium berghei. The data set can be described thus: Antimalarial activity against Plasmodium berghei infected in mouse assessed as suppression in parasitemia at 11.1 mg/kg, ip dosed once daily on days 0, 1, and 2 days post infection measured on day 7 post infection relative to untreated control. The data set is classed as functional.
The test system of data set [10] is Plasmodium berghei. The experiment in a line: Antimalarial activity against Plasmodium berghei infected in mouse assessed as suppression in parasitemia at 33.3 mg/kg, ip dosed once daily on days 0, 1, and 2 days post infection measured on day 7 post infection relative to untreated control. Format: functional.
The nature of data set [11]: in vitro. The note with it: hamster, CHO cells versus Plasmodium falciparum Dd2.
Description: Selectivity index, ratio of IC50 for CHO cells to IC50 for antiplasmodial activity against chloroquine-resistant Plasmodium falciparum Dd2
Data set [12] deals with Plasmodium falciparum. The data set can be described thus: microbe, parasite or virus in culture. The settings on record: Dd2, 48 h.
Description: Antiplasmodial activity against chloroquine-resistant Plasmodium falciparum Dd2 incubated for 48 hrs by parasite lactate dehydrogenase assay
The subject of data set [13] is Plasmodium falciparum. The data set can be described thus: Potency index, ratio of IC50 for chloroquine to IC50 for test compound for antiplasmodial activity against chloroquine-resistant Plasmodium falciparum Dd2 incubated for 48 hrs by parasite lactate dehydrogenase assay. The data set is classed as functional.
The test system of data set [14] is Plasmodium falciparum. The data set can be described thus: microbe, parasite or virus in culture. The note with it: NF54, 48 h.
Description: Antiplasmodial activity against chloroquine-sensitive Plasmodium falciparum NF54 incubated for 48 hrs by parasite lactate dehydrogenase assay
A further data set concerns CHO. The experiment in a line: Cytotoxicity in CHO cells assessed as reduction in cell viability. The data set is classed as cell-based. The note with it: Cricetulus griseus.
The test system of data set [15] is Plasmodium berghei. The experiment in a line: Antimalarial activity against Plasmodium berghei infected in mouse assessed as suppression in parasitemia at 33.3 mg/kg, ip dosed once daily on days 0, 1, and 2 days post infection measured on day 5 post infection relative to untreated control. The data set is classed as functional.
Data set [16] concerns Plasmodium berghei. The experiment in a line: Antimalarial activity against Plasmodium berghei infected in mouse assessed as host survival at 33.3 mg/kg, ip dosed once daily on days 0, 1, and 2 days post infection measured on day 28 post infection relative to untreated control. The data set is classed as functional, organism-based.

This note sets out measurements from ChEMBL document CHEMBL4433224, “Hybridization of Fluoro-amodiaquine (FAQ) with Pyrimidines: Synthesis and Antimalarial Efficacy of FAQ-Pyrimidines” (ACS Med Chem Lett, 2019).

The structures appear in SMILES notation. Activity calls are given as the source filed them. The calls are words filed in the database; no cut-off is given here.

By IC50 is commonly meant the concentration needed to halve the response being measured.

In the case of `Cc1cc(N2CCCCC2)nc(NCc2cc(Nc3ccnc4cc(Cl)ccc34)ccc2F)n1`, the result in the data set on Plasmodium berghei [1] was inactive. The MST in the data set with Plasmodium berghei [2] and in the data set with Plasmodium berghei [5] was 28 days in each case. The Activity in the data set with Plasmodium berghei [3], in the data set with Plasmodium berghei [9], with Plasmodium berghei [10] and in the data set with Plasmodium berghei [15] was 100% each time. In addition, the outcome in the data set with Plasmodium berghei [4], in the data set on Plasmodium berghei [8] and in the data set with Plasmodium berghei [16] was Active. The selectivity ratio in “in vitro [6]” came out at 237; in the data set “in vitro [11]”, 680. Further, the “Ratio IC50” value was found to be 2.8 with Plasmodium falciparum [7] and 47.3 in the data set on Plasmodium falciparum [13]. Besides, the IC50 in the data set with Plasmodium falciparum [12] amounted to 4.69 nM; with Plasmodium falciparum [14], 13.4 nM; with CHO, 3180 nM.
